Here are results for five compounds from ChEMBL document CHEMBL3085687, “Gymnopalynes A and B, chloropropynyl-isocoumarin antibiotics from cultures of the basidiomycete Gymnopus sp” (J Nat Prod, 2013).

In test [1] the test system is Amorphotheca resinae. The test can be described thus: Antifungal activity against Hormoconis resinae DSM 1203 assessed as growth inhibition up to 66.6 ug/mL. The format is functional, organism-based.
The subject of the next test is L929. As to the kind of experiment: Cytotoxicity against mouse L929 cells. The format is cell-based.
Test [2] relates to Chromobacterium violaceum. The test can be described thus: Antibacterial activity against Chromobacterium violaceum DSM 30191 assessed as growth inhibition. It is filed as functional.
For test [3], the system named is Mycolicibacterium diernhoferi. The test can be described thus: Antibacterial activity against Mycobacterium diernhoferi DSM 43524 assessed as growth inhibition up to 66.6 ug/mL. The format is functional, organism-based.
Test [4] deals with Aspergillus clavatus. As to the kind of experiment: Antifungal activity against Aspergillus clavatus DSM 816 assessed as growth inhibition up to 66.6 ug/mL. It is filed as functional, organism-based.
Test [5] has as its system Eremothecium coryli. As to the kind of experiment: Antifungal activity against Nematospora coryli DSM 6981 assessed as growth inhibition up to 66.6 ug/mL. It is filed as functional, organism-based.
In test [6] the test system is Nocardia sp. The test can be described thus: Antibacterial activity against Nocardia sp. DSM 43069 assessed as growth inhibition up to 66.6 ug/mL. It is filed as functional, organism-based.
Test [7] has as its system Pseudomonas aeruginosa. The test can be described thus: Antibacterial activity against Pseudomonas aeruginosa DSM 50071 assessed as growth inhibition up to 66.6 ug/mL. The format is functional, organism-based.
Test [8] relates to Wickerhamomyces anomalus. As to the kind of experiment: Antifungal activity against Pichia anomala DSM 6766 assessed as growth inhibition up to 66.6 ug/mL. The format is functional, organism-based.
Test [9] has as its system Pimelobacter simplex. The test can be described thus: Antibacterial activity against Nocardioides simplex DSM 20130 assessed as growth inhibition up to 66.6 ug/mL. It is filed as functional.
A short description of test [10]: Antifungal activity against Trichosporon oleaginosus DSM 11815 assessed as growth inhibition up to 66.6 ug/mL. The format is functional. To be noted: Cutaneotrichosporon oleaginosum.
Test [11] deals with Escherichia coli. The test can be described thus: Antibacterial activity against Escherichia coli DSM 1116 assessed as growth inhibition up to 66.6 ug/mL. It is filed as functional, organism-based.
The test system of test [12] is Micrococcus luteus. As to the kind of experiment: Antibacterial activity against Micrococcus luteus DSM 20030 assessed as growth inhibition up to 66.6 ug/mL. The format is functional, organism-based. To be noted: NCTC 2665.
Test [13] concerns Paenibacillus polymyxa. The test can be described thus: Antibacterial activity against Paenibacillus polymyxa DSM 36 assessed as growth inhibition up to 66.6 ug/mL. The format is functional.
The subject of test [14] is Rhodotorula glutinis. The test can be described thus: Antifungal activity against Rhodotorula glutinis DSM 10134 assessed as growth inhibition up to 66.6 ug/mL. The format is functional, organism-based.
The test system of test [15] is Schizosaccharomyces pombe. As to the kind of experiment: Antifungal activity against Schizosaccharomyces pombe DSM 70572 assessed as growth inhibition up to 66.6 ug/mL. It is filed as functional, organism-based.
The nature of test [16]: Antifungal activity against Penicillium capsulatum DSM 2210 assessed as growth inhibition up to 66.6 ug/mL. It is filed as functional.
The test system of test [17] is Candida albicans. As to the kind of experiment: Antifungal activity against Candida albicans DSM 1665 assessed as growth inhibition up to 66.6 ug/mL. It is filed as functional, organism-based.
The next test relates to Mucor hiemalis. As to the kind of experiment: Antifungal activity against Mucor hiemalis DSM 2656 assessed as growth inhibition. It is filed as functional.
Test [18] deals with Staphylococcus aureus. As to the kind of experiment: Antibacterial activity against Staphylococcus aureus DSM 346 assessed as growth inhibition up to 66.6 ug/mL. It is filed as functional, organism-based.
Test [19] deals with Schizosaccharomyces pombe. As to the kind of experiment: Antifungal activity against Schizosaccharomyces pombe DSM 70572 assessed as growth inhibition. It is filed as functional.
Test [20] concerns Aspergillus clavatus. The test can be described thus: Antifungal activity against Aspergillus clavatus DSM 816 assessed as growth inhibition. The format is functional.
The test system of test [21] is Pimelobacter simplex. As to the kind of experiment: Antibacterial activity against Nocardioides simplex DSM 20130 assessed as growth inhibition. The format is functional.
The test system of test [22] is Rhodotorula glutinis. As to the kind of experiment: Antifungal activity against Rhodotorula glutinis DSM 10134 assessed as growth inhibition. The format is functional.
Test [23] has as its system Pseudomonas aeruginosa. The test can be described thus: Antibacterial activity against Pseudomonas aeruginosa DSM 50071 assessed as growth inhibition. The format is functional.
Test [24] has as its system Amorphotheca resinae. As to the kind of experiment: Antifungal activity against Hormoconis resinae DSM 1203 assessed as growth inhibition. It is filed as functional.
The nature of test [25]: Antifungal activity against Trichosporon oleaginosus DSM 11815 assessed as growth inhibition. To be noted: Cutaneotrichosporon oleaginosum. It is filed as functional.
For test [26], the system named is Eremothecium coryli. As to the kind of experiment: Antifungal activity against Nematospora coryli DSM 6981 assessed as growth inhibition. The format is functional.
The test system of test [27] is Nocardia sp. The test can be described thus: Antibacterial activity against Nocardia sp. DSM 43069 assessed as growth inhibition. The format is functional.
Test [28] relates to Candida albicans. As to the kind of experiment: Antifungal activity against Candida albicans DSM 1665 assessed as growth inhibition. It is filed as functional, organism-based.
Test [29] relates to Wickerhamomyces anomalus. As to the kind of experiment: Antifungal activity against Pichia anomala DSM 6766 assessed as growth inhibition. It is filed as functional, organism-based.
Test [30] in a line: Antifungal activity against Penicillium capsulatum DSM 2210 assessed as growth inhibition. It is filed as functional.
In test [31] the test system is Staphylococcus aureus. As to the kind of experiment: Antibacterial activity against Staphylococcus aureus DSM 346 assessed as growth inhibition. The format is functional.
For test [32], the system named is Escherichia coli. As to the kind of experiment: Antibacterial activity against Escherichia coli DSM 1116 assessed as growth inhibition. It is filed as functional.
In test [33] the test system is Mycolicibacterium diernhoferi. As to the kind of experiment: Antibacterial activity against Mycobacterium diernhoferi DSM 43524 assessed as growth inhibition. It is filed as functional.
Test [34] concerns Paenibacillus polymyxa. As to the kind of experiment: Antibacterial activity against Paenibacillus polymyxa DSM 36 assessed as growth inhibition. It is filed as functional.
Test [35] has as its system Micrococcus luteus. The test can be described thus: Antibacterial activity against Micrococcus luteus DSM 20030 assessed as growth inhibition. The format is functional. To be noted: NCTC 2665.

In brackets after ≈: the same amount, converted by molar mass. Activity calls are given as the source filed them. No cut-off for these calls is given here. Where only a bound is given, the exact number is not on record here.

As usually defined, the IC50 is the midpoint of a concentration-inhibition curve. A higher IC50 goes with a need for much substance. The term MIC denotes the least concentration at which growth counts as inhibited. For `O=C1O[C@H](C#CCCl)Cc2ccccc21`, the “growth inhibition (GI)” value (in the test with Amorphotheca resinae [1]; in test [3]; with Aspergillus clavatus [4]; with Eremothecium coryli [5]; in the test with Nocardia sp. [6]; with Pseudomonas aeruginosa [7]) was “inactive” in each case. The “growth inhibition (GI)” value (in the test with Wickerhamomyces anomalus [8]; with Pimelobacter simplex [9]; in test [10]; in the test with Escherichia coli [11]; with Micrococcus luteus [12]; with Paenibacillus polymyxa [13]) was “inactive” in each case. Besides, the “growth inhibition (GI)” value (with Rhodotorula glutinis [14]; in test [15]; in [16]; in the test with Candida albicans [17]; in the test with Staphylococcus aureus [18]) was “inactive” throughout. The same compound yielded a half-maximal inhibitory concentration (IC50) in the test with L929 of 14 µM. The minimal inhibitory concentration (MIC) (in test [2]; with Mucor hiemalis) was 33.3 µg/mL (≈ 151 µM) throughout.

For the compound `O=c1oc(C#CCCl)cc2ccccc12`, the minimum inhibitory concentration (MIC) in test [19] is 16.6 µg/mL (≈ 75.9 µM); with Aspergillus clavatus [20], 16.6 µg/mL (≈ 75.9 µM); in test [2], 33.3 µg/mL (≈ 152 µM); with Pimelobacter simplex [21], 33.3 µg/mL (≈ 152 µM); in the test on Rhodotorula glutinis [22], 33.3 µg/mL (≈ 152 µM); in the test on Pseudomonas aeruginosa [23], 67 µg/mL (≈ 306 µM). The minimal inhibitory concentration (MIC) in the test with Amorphotheca resinae [24] came out at 33.3 µg/mL (≈ 152 µM); in test [25], 33.3 µg/mL (≈ 152 µM); with Eremothecium coryli [26], 16.6 µg/mL (≈ 75.9 µM); with Mucor hiemalis, 16.6 µg/mL (≈ 75.9 µM); in the test with Nocardia sp. [27] it was 67 µg/mL (≈ 306 µM). In addition, the IC50 with L929 turned out to be 3.7 µM. Also, the “growth inhibition (GI)” value (in test [3]; in the test on Wickerhamomyces anomalus [8]; with Escherichia coli [11]; in the test with Micrococcus luteus [12]; in the test on Paenibacillus polymyxa [13]; in test [16]) was “inactive” each time. The “growth inhibition (GI)” value with Candida albicans [17] and with Staphylococcus aureus [18] was “inactive” in each case.

Regarding GENTAMICIN, the MIC with Pseudomonas aeruginosa [23] is 67 µg/mL.

As for NYSTATIN, the minimal inhibitory concentration (MIC) in test [19] was 33.3 µg/mL; with Aspergillus clavatus [20], 2.1 µg/mL; in the test on Candida albicans [28], 4.2 µg/mL; in the test on Rhodotorula glutinis [22], 0.52 µg/mL; in the test on Amorphotheca resinae [24], less than 0.25 µg/mL; with Wickerhamomyces anomalus [29], 4.2 µg/mL. For the same compound, the minimal inhibitory concentration (MIC) was 16.6 µg/mL in [30], 1 µg/mL in test [25], 3.3 µg/mL in the test on Eremothecium coryli [26] and 2.1 µg/mL with Mucor hiemalis.

`CN(C)[C@@H]1C(O)=C(C(N)=O)C(=O)[C@@]2(O)C(O)=C3C(=O)c4c(O)cccc4[C@@](C)(O)[C@H]3[C@H](O)[C@@H]12.Cl` [OXYTETRACYCLINE HYDROCHLORIDE]: the minimum inhibitory concentration (MIC) is 1 µg/mL in test [2]; 16.6 µg/mL in the test on Pimelobacter simplex [21]; not above 0.25 µg/mL in the test on Staphylococcus aureus [31]; 1 µg/mL with Escherichia coli [32]; not above 0.25 µg/mL in test [33]; 6.7 µg/mL in the test on Paenibacillus polymyxa [34]. Also, the MIC is 2.1 µg/mL with Micrococcus luteus [35] and 0.25 µg/mL in the test on Nocardia sp. [27].
